The values below come from BindingDB's records for doi:10.1021/jm000541z (Abbott Laboratories, 2001).

For the experiment, the target named is Alpha-1B adrenergic receptor (Mesocricetus auratus) (UniProt P18841). The experiment can be described thus: Binding affinity to hamster alpha-1B adrenergic receptor.
Chain of Alpha-1B adrenergic receptor (Mesocricetus auratus) (P18841 whole entry, looked up): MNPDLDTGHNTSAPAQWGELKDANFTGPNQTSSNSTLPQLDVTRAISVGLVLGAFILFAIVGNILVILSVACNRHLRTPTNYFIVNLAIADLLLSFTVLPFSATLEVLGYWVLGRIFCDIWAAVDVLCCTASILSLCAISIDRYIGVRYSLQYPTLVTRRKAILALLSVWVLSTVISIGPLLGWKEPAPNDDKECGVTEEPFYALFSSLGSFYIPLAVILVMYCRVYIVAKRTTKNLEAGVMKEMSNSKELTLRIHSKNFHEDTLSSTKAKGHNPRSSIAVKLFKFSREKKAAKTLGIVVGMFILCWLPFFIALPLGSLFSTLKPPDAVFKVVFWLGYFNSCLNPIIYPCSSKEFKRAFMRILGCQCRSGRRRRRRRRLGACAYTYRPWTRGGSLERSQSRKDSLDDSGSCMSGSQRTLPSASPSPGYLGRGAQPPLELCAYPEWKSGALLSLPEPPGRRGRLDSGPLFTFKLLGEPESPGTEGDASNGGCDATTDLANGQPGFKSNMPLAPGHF

For the compound `COc1cc2ncn(CCN3C[C@@H]4CCc5c(OC)cccc5[C@@H]4C3)c(=O)c2cc1OC` [6,7-Dimethoxy-3-[2-(6-methoxy-1,3,3a,4,5,9b-hexahydro-benzo[e]isoindol-2-yl)-ethyl]-3H-quinazolin-4-one], the Ki (as a rule, the dissociation constant of the complex between target and ligand, obtained from inhibition or displacement) worked out at 15.3 nM.
As for `COc1cccc2c1CC[C@H]1CN(CCn3c(=O)[nH]c4sccc4c3=O)C[C@@H]21` [3-[2-(6-Methoxy-1,3,3a,4,5,9b-hexahydro-benzo[e]isoindol-2-yl)-ethyl]-1H-thieno[2,3-d]pyrimidine-2,4-dione], the figure is 2.11 nM; as for `COc1cccc2c1CC[C@H]1CN(CCn3c(=O)[nH]c4c(C)c(OC)sc4c3=O)C[C@@H]21` [6-Methoxy-3-[2-(6-methoxy-1,3,3a,4,5,9b-hexahydro-benzo[e]isoindol-2-yl)-ethyl]-7-methyl-1H-thieno[3,2-d]pyrimidine-2,4-dione], 7.14 nM.
The result for `COc1cccc2c1CC[C@H]1CN(CCn3c(=O)[nH]c4cscc4c3=O)C[C@@H]21` [3-[2-(6-Methoxy-1,3,3a,4,5,9b-hexahydro-benzo[e]isoindol-2-yl)-ethyl]-1H-thieno[3,4-d]pyrimidine-2,4-dione] reads 1.01 nM.
In turn, `COc1cc(N)c(C(=O)NCCN2C[C@@H]3CCc4c(OC)cccc4[C@@H]3C2)cc1OC` [2-Amino-4,5-dimethoxy-N-[2-(6-methoxy-1,3,3a,4,5,9b-hexahydro-benzo[e]isoindol-2-yl)-ethyl]-benzamide] showed a Ki of 29.1 nM.
`COc1cccc2c1CC[C@H]1CN(CCn3c(=O)[nH]c4cc([N+](=O)[O-])ccc4c3=O)C[C@@H]21` [3-[2-(6-Methoxy-1,3,3a,4,5,9b-hexahydro-benzo[e]isoindol-2-yl)-ethyl]-7-nitro-1H-quinazoline-2,4-dione] had a Ki of 3.33 nM.
On to `COc1cc2c(cc1OC)CN(CCN1C[C@@H]3CCc4c(OC)cccc4[C@@H]3C1)CC2` [2-[2-(6,7-Dimethoxy-3,4-dihydro-1H-isoquinolin-2-yl)-ethyl]-6-methoxy-2,3,3a,4,5,9b-hexahydro-1H-benzo[e]isoindole], for which the Ki worked out at 116 nM.
In turn, `COc1cccc2c1CC[C@H]1CN(CCn3c(=O)[nH]c4cnccc4c3=O)C[C@@H]21` [3-[2-(6-Methoxy-1,3,3a,4,5,9b-hexahydro-benzo[e]isoindol-2-yl)-ethyl]-1H-pyrido[3,4-d]pyrimidine-2,4-dione] showed a Ki of 3.1 nM.
As for `COc1cccc2c1CC[C@H]1CN(CCn3c(=O)[nH]c4ccncc4c3=O)C[C@@H]21` [3-[2-(6-Methoxy-1,3,3a,4,5,9b-hexahydro-benzo[e]isoindol-2-yl)-ethyl]-1H-pyrido[4,3-d]pyrimidine-2,4-dione], affinity was put at a Ki of 10.6 nM.
As for `COc1cccc2c1CC[C@H]1CN(CCn3c(=O)[nH]c4c(OC)cccc4c3=O)C[C@@H]21` [8-Methoxy-3-[2-(6-methoxy-1,3,3a,4,5,9b-hexahydro-benzo[e]isoindol-2-yl)-ethyl]-1H-quinazoline-2,4-dione], the figure is 2.27 nM.
`COc1cccc2c1CC[C@H]1CN(CCn3c(=O)[nH]c4cccc(C)c4c3=O)C[C@@H]21` [3-[2-(6-Methoxy-1,3,3a,4,5,9b-hexahydro-benzo[e]isoindol-2-yl)-ethyl]-5-methyl-1H-quinazoline-2,4-dione] displayed a Ki of 1.04 nM.
As for `COc1cc2[nH]c(=O)n(CCN3C[C@@H]4CCc5c(OC)cccc5[C@@H]4C3)c(=O)c2cc1Cl` [6-Chloro-7-methoxy-3-[2-(6-methoxy-1,3,3a,4,5,9b-hexahydro-benzo[e]isoindol-2-yl)-ethyl]-1H-quinazoline-2,4-dione], the figure is 9.27 nM.
As for `COc1cccc2c1CC[C@H]1CN(CCn3c(=O)[nH]c4ccccc4c3=O)C[C@@H]21` [3-[2-(6-Methoxy-1,3,3a,4,5,9b-hexahydro-benzo[e]isoindol-2-yl)-ethyl]-1H-quinazoline-2,4-dione], the figure is 1.16 nM; as for `COc1ccc2[nH]c(=O)n(CCN3C[C@@H]4CCc5c(OC)cccc5[C@@H]4C3)c(=O)c2c1` [6-Methoxy-3-[2-(6-methoxy-1,3,3a,4,5,9b-hexahydro-benzo[e]isoindol-2-yl)-ethyl]-1H-quinazoline-2,4-dione], 3.76 nM; as for `COc1cccc2c1CC[C@H]1CN(CCn3c(=O)[nH]c4c(sc5ncc(Cl)nc54)c3=O)C[C@@H]21` [3-Chloro-7-[2-(6-methoxy-1,3,3a,4,5,9b-hexahydro-benzo[e]isoindol-2-yl)-ethyl]-5H-9-thia-1,4,5,7-tetraaza-fluorene-6,8-dione], 35.1 nM.
As for `COc1cccc2c1CC[C@H]1CN(CCn3c(=O)[nH]c4cc(C#N)ccc4c3=O)C[C@@H]21` [3-[2-(6-Methoxy-1,3,3a,4,5,9b-hexahydro-benzo[e]isoindol-2-yl)-ethyl]-2,4-dioxo-1,2,3,4-tetrahydro-quinazoline-7-carbonitrile], the figure is 1.56 nM; as for `COc1cccc2c1CC[C@H]1CN(CCn3c(=O)[nH]c4ncccc4c3=O)C[C@@H]21` [3-[2-(6-Methoxy-1,3,3a,4,5,9b-hexahydro-benzo[e]isoindol-2-yl)-ethyl]-1H-pyrido[2,3-d]pyrimidine-2,4-dione], 3.31 nM; as for `COC(=O)c1cc2[nH]c(=O)n(CCN3C[C@@H]4CCc5c(OC)cccc5[C@@H]4C3)c(=O)c2s1` [3-[2-(6-Methoxy-1,3,3a,4,5,9b-hexahydro-benzo[e]isoindol-2-yl)-ethyl]-2,4-dioxo-1,2,3,4-tetrahydro-thieno[3,2-d]pyrimidine-6-carboxylic acid methyl ester], 3.37 nM.
Compound `COc1cc2c(cc1OC)NC(=O)N(CCN1C[C@@H]3CCc4c(OC)cccc4[C@@H]3C1)C2` [6,7-Dimethoxy-3-[2-(6-methoxy-1,3,3a,4,5,9b-hexahydro-benzo[e]isoindol-2-yl)-ethyl]-3,4-dihydro-1H-quinazolin-2-one] displayed a Ki of 191 nM.
In turn, `COc1cc2c(=O)n(CCN3C[C@@H]4CCc5c(OC)cccc5[C@@H]4C3)c(=O)n(C)c2cc1OC` [6,7-Dimethoxy-3-[2-(6-methoxy-1,3,3a,4,5,9b-hexahydro-benzo[e]isoindol-2-yl)-ethyl]-1-methyl-1H-quinazoline-2,4-dione] registered a Ki of 3.31 nM.
As for `COc1cccc2c1CC[C@H]1CN(CCn3c(=O)[nH]c4cc(-c5ccccc5)sc4c3=O)C[C@@H]21` [3-[2-(6-Methoxy-1,3,3a,4,5,9b-hexahydro-benzo[e]isoindol-2-yl)-ethyl]-6-phenyl-1H-thieno[3,2-d]pyrimidine-2,4-dione], the figure is 11.3 nM; as for `COc1cccc2c1CC[C@H]1CN(CCn3c(=O)[nH]c4cccc(Cl)c4c3=O)C[C@@H]21` [5-Chloro-3-[2-(6-methoxy-1,3,3a,4,5,9b-hexahydro-benzo[e]isoindol-2-yl)-ethyl]-1H-quinazoline-2,4-dione], 0.92 nM.
In turn, `COc1cccc2c1CC[C@H]1CN(CCn3c(=O)[nH]c4[nH]ccc4c3=O)C[C@@H]21` [3-[2-(6-Methoxy-1,3,3a,4,5,9b-hexahydro-benzo[e]isoindol-2-yl)-ethyl]-1,7-dihydro-pyrrolo[2,3-d]pyrimidine-2,4-dione] had a Ki of 2.58 nM.
In the case of `COc1cc2[nH]c(=O)n(CCN3C[C@@H]4CCc5c(OC)cccc5[C@@H]4C3)c(=O)c2s1` [6-Methoxy-3-[2-(6-methoxy-1,3,3a,4,5,9b-hexahydro-benzo[e]isoindol-2-yl)-ethyl]-1H-thieno[3,2-d]pyrimidine-2,4-dione], the Ki was 0.74 nM.
